Assay results as given in ChEMBL document CHEMBL1201862, “PubChem BioAssay data set” (2004).
Active and inactive are the calls of the source.

Tests used:
Protein RecA = molecular target: T1, Protein RecA (Mycobacterium tuberculosis, UniProt P9WHJ3); experiment: Fluorescence Cell-Free Homogeneous Dose Retest to Identify Inhibitors of RecA-Intein Splicing Activity. [Related pubchem assays (depositor defined):AID2097, AID2223, AID489010, AID492950]; type: functional
T1 sequence (P9WHJ3 whole entry): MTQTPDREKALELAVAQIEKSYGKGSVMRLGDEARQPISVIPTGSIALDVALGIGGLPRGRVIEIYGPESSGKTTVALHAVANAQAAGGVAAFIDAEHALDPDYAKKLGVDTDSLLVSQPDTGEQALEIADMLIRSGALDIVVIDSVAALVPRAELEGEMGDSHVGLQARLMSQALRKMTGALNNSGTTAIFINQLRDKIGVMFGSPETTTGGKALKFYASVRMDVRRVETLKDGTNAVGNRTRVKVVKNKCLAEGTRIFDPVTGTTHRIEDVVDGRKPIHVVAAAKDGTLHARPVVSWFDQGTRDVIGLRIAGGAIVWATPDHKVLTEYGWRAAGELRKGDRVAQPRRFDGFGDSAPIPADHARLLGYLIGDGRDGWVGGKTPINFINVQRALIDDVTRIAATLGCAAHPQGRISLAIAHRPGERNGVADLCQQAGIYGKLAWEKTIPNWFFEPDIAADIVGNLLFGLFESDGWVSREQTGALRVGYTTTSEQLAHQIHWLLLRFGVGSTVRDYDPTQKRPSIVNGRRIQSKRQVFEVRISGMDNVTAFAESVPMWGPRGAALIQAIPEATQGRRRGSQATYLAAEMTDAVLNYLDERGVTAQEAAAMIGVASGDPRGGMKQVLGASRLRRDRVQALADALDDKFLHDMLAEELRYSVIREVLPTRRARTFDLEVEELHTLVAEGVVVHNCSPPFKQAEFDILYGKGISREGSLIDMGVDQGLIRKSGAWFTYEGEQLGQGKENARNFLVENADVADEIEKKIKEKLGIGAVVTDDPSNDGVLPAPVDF

Vero = Vero cell cytotoxicity, cytotoxicity control for flavivirus capping enzyme inhibitors (AID 588742); type: functional; conditions: Chlorocebus sabaeus
[1] = molecular target: T2, Replicative DNA helicase DnaB (Mycobacterium tuberculosis, UniProt P9WMR3); experiment: DnaB intein splicing inhibitors, dose response, biochemical, cell-free fluorescence (AID 449749); type: functional
T2 sequence (P9WMR3 whole entry): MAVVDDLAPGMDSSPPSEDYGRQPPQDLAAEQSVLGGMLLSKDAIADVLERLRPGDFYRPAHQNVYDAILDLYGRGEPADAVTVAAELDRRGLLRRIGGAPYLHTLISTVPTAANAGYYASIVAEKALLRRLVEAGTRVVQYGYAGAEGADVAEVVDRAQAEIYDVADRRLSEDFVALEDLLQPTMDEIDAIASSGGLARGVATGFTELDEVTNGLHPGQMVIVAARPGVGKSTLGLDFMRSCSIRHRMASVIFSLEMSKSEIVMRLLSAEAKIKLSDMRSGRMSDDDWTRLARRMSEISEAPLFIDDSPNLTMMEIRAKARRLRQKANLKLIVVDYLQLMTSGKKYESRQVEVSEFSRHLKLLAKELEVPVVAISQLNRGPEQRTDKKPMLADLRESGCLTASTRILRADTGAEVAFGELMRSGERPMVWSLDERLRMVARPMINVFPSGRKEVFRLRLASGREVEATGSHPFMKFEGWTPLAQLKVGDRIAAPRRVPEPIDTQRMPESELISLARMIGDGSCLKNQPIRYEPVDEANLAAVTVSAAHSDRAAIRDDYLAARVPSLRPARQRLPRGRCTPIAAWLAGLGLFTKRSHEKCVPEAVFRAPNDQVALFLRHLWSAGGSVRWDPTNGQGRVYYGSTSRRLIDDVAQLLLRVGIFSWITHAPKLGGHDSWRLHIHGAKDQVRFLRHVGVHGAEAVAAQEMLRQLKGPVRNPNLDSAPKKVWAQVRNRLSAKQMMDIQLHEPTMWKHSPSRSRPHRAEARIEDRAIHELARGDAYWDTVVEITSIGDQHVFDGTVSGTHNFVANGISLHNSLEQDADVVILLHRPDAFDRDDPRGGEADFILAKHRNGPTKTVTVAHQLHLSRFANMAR

Genome polyprotein = Genome polyprotein (dengue virus type 2, UniProt P29990); experiment: Dengue-2 NS5 methyltransferase inhibitors, primary screen, biochemical, confirmation dose response (AID 588689); type: functional
Genome polyprotein, sequence (P29990 2492-3391 limits assumed): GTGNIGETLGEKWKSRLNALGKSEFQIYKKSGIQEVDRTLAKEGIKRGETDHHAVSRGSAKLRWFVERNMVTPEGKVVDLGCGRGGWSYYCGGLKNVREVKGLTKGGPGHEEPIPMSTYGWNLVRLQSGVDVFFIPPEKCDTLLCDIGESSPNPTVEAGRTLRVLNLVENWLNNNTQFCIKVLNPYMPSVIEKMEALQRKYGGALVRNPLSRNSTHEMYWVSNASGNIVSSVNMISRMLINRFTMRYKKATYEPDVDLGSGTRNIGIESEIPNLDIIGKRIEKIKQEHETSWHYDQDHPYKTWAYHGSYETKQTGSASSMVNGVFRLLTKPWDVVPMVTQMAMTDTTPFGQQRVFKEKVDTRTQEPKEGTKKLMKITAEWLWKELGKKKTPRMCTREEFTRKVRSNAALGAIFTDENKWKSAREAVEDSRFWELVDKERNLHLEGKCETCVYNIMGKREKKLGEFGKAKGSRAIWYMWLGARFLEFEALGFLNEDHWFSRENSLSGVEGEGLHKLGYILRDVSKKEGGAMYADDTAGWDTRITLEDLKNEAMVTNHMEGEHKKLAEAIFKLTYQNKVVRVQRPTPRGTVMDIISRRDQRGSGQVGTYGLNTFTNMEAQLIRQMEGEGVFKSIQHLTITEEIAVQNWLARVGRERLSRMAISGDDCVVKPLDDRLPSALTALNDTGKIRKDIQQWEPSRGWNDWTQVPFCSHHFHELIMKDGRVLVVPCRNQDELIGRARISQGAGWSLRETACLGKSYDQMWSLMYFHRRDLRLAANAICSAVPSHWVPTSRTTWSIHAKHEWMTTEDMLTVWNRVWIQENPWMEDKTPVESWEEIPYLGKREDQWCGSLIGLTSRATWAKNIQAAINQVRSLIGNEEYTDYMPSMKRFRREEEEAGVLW

[2] = molecular target: Hepatocyte nuclear factor 4-alpha (Homo sapiens, UniProt P41235); type: functional, cell-based;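 also: biochemical luminescence-based dose-response counterscreen measuring inhibition of HNF4 dimerization, run alongside a screen for blockers of ABHD5–perilipin-5 interaction; split luciferase complementation of HNF4 fusion proteins in cell lysate measuring dimerization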
Hepatocyte nuclear factor 4-alpha, sequence (P41235 whole entry, the tested form may be a part): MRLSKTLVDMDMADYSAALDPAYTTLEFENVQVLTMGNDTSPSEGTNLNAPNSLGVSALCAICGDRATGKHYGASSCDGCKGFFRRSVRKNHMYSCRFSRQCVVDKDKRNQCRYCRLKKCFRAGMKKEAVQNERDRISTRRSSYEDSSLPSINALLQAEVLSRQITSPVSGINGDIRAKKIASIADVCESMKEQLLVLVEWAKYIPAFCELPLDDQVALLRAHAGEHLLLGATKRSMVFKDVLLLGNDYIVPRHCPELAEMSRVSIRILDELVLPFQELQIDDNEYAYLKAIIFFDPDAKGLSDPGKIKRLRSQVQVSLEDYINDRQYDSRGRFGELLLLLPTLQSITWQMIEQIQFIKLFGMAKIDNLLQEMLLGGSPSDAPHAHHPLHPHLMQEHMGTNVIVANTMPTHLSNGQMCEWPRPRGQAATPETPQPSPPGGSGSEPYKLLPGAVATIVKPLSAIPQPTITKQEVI

[3] = control 3'UTR Renilla luciferase suppression, dose response, counter-screen for Shn3 inhibitor project, cell-based, Clone20-Shn3RL, cherry-picked (AID 624133); type: functional
[4] = Intein inhibitors as potential Tuberculosis drugs, a cytotoxicity screen. [Related pubchem assays (depositor defined):AID2221, AID2223, AID434968, AID435010, AID449749, AID449750, AID489010]; type: functional
[5] = molecular target: Potassium voltage-gated channel subfamily KQT member 2 (Rattus norvegicus, UniProt O88943, W236L); experiment: KCNQ2 channel potentiators, dose response, mechanism study for KCNQ2 potentiator project, cell-based, automated electrophysiology (AID 2603); type: functional
Potassium voltage-gated channel subfamily KQT member 2, sequence (O88943 whole entry W236L): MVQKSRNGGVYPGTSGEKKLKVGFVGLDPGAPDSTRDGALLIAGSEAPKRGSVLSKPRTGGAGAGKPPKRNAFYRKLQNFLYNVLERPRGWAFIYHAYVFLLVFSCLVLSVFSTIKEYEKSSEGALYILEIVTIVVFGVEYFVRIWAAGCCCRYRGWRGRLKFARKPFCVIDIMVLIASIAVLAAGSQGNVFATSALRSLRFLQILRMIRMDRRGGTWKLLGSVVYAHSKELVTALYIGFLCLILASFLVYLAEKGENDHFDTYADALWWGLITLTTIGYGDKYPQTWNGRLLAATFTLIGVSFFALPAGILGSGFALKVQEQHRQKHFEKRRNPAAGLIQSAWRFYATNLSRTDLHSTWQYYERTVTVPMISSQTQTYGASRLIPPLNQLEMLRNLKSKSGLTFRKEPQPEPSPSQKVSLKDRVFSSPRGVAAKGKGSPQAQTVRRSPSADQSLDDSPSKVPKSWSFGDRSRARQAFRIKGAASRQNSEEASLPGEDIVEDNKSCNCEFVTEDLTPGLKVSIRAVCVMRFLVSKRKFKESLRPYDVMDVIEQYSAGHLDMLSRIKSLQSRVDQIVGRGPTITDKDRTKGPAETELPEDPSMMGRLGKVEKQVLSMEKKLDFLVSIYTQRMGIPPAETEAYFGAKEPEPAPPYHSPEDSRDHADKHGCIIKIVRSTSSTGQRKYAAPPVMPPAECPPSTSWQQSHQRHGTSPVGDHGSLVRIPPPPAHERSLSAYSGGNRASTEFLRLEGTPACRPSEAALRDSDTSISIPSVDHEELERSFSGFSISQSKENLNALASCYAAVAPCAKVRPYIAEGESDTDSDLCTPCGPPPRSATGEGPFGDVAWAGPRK

[6] = molecular target: T3, High affinity choline transporter 1 (Homo sapiens, UniProt Q9GZV3); experiment: CHT inhibitors, dose response, cell-based, 10-point CRC, membrane potential dye (AID 588401); type: functional;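 also: membrane potential dye fluorescence of choline-evoked depolarization via CHT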
T3 sequence (Q9GZV3 whole entry): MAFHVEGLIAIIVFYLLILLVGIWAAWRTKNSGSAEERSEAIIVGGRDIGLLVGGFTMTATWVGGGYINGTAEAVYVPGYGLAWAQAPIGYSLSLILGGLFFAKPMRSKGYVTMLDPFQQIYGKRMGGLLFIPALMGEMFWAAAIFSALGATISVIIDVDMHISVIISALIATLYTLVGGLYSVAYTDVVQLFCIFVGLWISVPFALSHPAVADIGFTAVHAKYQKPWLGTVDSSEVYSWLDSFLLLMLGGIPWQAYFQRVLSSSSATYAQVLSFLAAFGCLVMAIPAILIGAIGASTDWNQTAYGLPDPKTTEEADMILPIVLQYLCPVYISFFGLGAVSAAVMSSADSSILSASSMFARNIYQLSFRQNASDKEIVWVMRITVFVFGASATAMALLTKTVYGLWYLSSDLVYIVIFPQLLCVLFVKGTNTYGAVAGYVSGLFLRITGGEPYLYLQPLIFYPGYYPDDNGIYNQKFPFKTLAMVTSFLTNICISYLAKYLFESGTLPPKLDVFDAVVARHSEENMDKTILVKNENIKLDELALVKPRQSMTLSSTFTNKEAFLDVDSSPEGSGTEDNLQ

[7] = Shn3 3'UTR reporter inhibitors, dose response, cell-based, Clone20 osteoblasts, firefly luciferase, cherry-picked (AID 624132); type: functional;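 also: firefly luciferase luminescence from reporter carrying the Shn3 3'UTR in osteoblasts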
[8] = molecular target: T3, High affinity choline transporter 1; experiment: CHT inhibitors, dose response, cell-based, 5-point CRC, membrane potential dye (AID 504840); type: functional
[9] = molecular target: T4, Heat shock factor protein 1 (Mus musculus, UniProt P38532); experiment: inhibition of MG132-induced HSE-luciferase signal, confirmation, cell-based, NIH3T3, luminescence, dose retest (AID 2382); type: functional;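 also: NIH3T3 fibroblasts with HSF1-driven luciferase reporter stressed by proteasome inhibitor MG132; luminescence from HSF1-driven luciferase expression after 8 hours of MG132 stress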
T4 sequence (P38532 whole entry): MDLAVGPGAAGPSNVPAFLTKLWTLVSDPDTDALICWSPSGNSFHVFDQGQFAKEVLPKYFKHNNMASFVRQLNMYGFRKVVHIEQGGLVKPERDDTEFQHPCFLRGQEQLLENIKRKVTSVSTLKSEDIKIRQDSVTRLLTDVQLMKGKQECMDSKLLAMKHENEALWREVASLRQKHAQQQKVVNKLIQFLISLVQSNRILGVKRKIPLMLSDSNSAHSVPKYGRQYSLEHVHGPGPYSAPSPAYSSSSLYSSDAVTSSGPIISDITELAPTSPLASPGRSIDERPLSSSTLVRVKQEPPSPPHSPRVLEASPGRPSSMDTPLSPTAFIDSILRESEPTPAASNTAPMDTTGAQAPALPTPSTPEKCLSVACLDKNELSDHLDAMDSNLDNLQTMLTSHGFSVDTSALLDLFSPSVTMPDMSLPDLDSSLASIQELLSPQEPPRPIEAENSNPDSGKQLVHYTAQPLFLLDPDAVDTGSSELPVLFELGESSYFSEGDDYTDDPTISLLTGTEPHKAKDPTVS

[10] = molecular target: T5, Neuropeptide Y receptor type 1 (Homo sapiens, UniProt P25929); experiment: Fluorescence-based counterscreen for agonists of NPY-Y2: cell-based high-throughput dose response assay for agonists of NPY-Y1.; type: functional
T5 sequence (P25929 whole entry): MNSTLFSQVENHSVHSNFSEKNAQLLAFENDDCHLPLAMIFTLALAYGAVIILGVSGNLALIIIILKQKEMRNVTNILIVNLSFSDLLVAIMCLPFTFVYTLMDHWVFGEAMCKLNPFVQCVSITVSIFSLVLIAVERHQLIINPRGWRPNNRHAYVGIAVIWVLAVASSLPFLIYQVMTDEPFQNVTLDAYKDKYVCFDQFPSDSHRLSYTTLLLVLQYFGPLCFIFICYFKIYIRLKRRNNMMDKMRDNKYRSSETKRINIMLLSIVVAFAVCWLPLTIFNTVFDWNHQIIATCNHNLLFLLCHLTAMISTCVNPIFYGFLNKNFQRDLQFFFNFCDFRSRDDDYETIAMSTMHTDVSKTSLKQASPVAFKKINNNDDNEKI

[11] = molecular target: T6, Neuropeptide Y receptor type 2 (Homo sapiens, UniProt P49146); experiment: Fluorescence-based cell-based high-throughput dose response assay for agonists of NPY-Y2. [Related pubchem assays: 1703 (Screening assay (CNGC inhibitors).), 1359 (Screening assay (NPY-Y2 potentiators or agonists).), 1304 (Screening assay (NPY-Y1 potentiators or agonists).), 1710 (Screening assay (NPY-Y2 agonists).), 1791 (Summary AID.)]; type: functional
T6 sequence (P49146 whole entry): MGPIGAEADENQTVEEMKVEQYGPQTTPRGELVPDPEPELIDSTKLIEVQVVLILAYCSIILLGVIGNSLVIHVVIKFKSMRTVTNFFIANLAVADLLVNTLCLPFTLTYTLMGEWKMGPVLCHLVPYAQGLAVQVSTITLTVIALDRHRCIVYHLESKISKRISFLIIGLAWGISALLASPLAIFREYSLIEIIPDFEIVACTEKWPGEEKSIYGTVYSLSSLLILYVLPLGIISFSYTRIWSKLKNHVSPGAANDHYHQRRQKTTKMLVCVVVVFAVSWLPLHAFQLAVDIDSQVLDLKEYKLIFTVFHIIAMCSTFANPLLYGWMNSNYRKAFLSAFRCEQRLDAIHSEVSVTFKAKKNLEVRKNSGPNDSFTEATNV

HEK293 [12] = experiment: Fluorescence-based counterscreen for potentiators or agonists of NPY-Y2: cell-based high-throughput dose response assay to identify inhibitors of cyclic nucleotide gated ion channel (CNGC) activity. In this assay, the parental HEK293 cell line transfected with a cyclic-nucleotide gated ion channel (CNGC)-based cAMP sensor is used to measure inhibition of isoproterenol-induced CNGC activity by test compound.; type: functional; conditions: Homo sapiens
cells [13] = experiment: cells
[14] = inhibitors of intracellular T. cruzi replication, confirmation, NIH3T3 host cells, beta-gal luminescence (AID 2044); type: functional, cell-based;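 also: intracellular parasites grown in NIH/3T3 mouse fibroblasts as host cells; luminescent beta-galactosidase reporter signal from transgenic T. cruzi replicating inside host cells; inhibitors lower the luminescence signal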
HEK293 [15] = experiment: inhibitors of LMP1-driven NF-kB reporter, dose response, cell-based, HEK293, luciferase, cherry-pick (AID 588343); type: functional; conditions: Homo sapiens
cells [16] = type: functional, cell-based
Nonstructural protein 1 = Nonstructural protein 1 (Influenza A virus, UniProt Q194T2); type: functional, Influenza A virus (A/California/07/2009(H1N1))
Nonstructural protein 1, sequence (Q194T2 whole entry): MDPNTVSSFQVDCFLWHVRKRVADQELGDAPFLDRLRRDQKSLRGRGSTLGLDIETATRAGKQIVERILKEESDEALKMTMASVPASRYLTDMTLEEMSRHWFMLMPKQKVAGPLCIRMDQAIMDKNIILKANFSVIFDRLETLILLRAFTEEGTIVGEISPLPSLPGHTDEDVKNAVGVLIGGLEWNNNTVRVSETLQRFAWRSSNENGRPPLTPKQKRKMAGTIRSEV

[17] = C. albicans growth with fluconazole, confirmation, fluorescence, retest (AID 2467); type: functional, cell-based
[18] = NIH-3T3 fibroblast cytotoxicity, dose response, cytotoxicity control, cell-based, fluorescence, Alamar Blue, secondary assay (AID 2327); type: functional;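 also: NIH-3T3 mouse fibroblasts cultured with fluconazole at 8 µg/mL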
INS1 = experiment: beta cell apoptosis inhibitors, cytokine rescue, dose response, luminescence, retest (AID 449756); type: functional, cell-based; conditions: Rattus norvegicus;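 also: cell death triggered by IL-1 beta plus TNF-alpha plus IFN-gamma mixture; protective hits raise ATP signal compared with cytokine alone wells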
[19] = cytotoxicity toward NIH3T3 fibroblasts, dose response, counter-screen, cell-based, ATP luminescence, mouse fibroblasts (AID 2010); type: functional;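 also: cells exposed to compound for about 90 hours before reading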
[20] = Luminescence-based counterscreen assay for KLF5 inhibitors: dose response cell-based high throughput screening assay to identify cytotoxic compounds using the IEC-6 intestinal epithelial cell line. [Related pubchem assays: 1700 (Primary screen.), 1834 (Confirmation screen.), 1858 (Summary AID.), 1905 (Counterscreen.)]; type: functional
cells [21] = type: functional, cell-based; remark: listed apart in the source
HeLa = experiment: Cytotoxicity counterscreen assay for transcriptional activators of heat shock protein 70 (Hsp70). [Related pubchem assays: 1203, 1252 ]; type: functional; conditions: Homo sapiens
[22] = Luminescence Cell-Based Dose Retest to Confirm Inhibitors of Cancer Stem Cells. [Related pubchem assays (depositor defined):AID2717, AID2721]; type: functional; conditions: Homo sapiens
[23] = HEK293T cell cytotoxicity, dose response, cytotoxicity control for HIV Vif inhibitor project, cherry-picks (AID 652208); type: functional, cell-based
[24] = HEK293 cell cytotoxicity, dose response, cytotoxicity control, dry powder samples (AID 720567); type: functional, cell-based
[25] = molecular target: T6, Neuropeptide Y receptor type 2; type: functional, cell-based
[26] = molecular target: T5, Neuropeptide Y receptor type 1; type: functional

## CC(C)c1nnc(NC(=O)c2nc(S(=O)(=O)Cc3ccc(F)cc3)ncc2Cl)s1
Protein RecA
  EC50: 2.73 µM (active)
Vero
  CC50: 27.1 µM (active)
[1]
  AC50: 3.54 µM (active)
Genome polyprotein
  IC50: 96 µM (active)
[2]
  IC50: 4.69 µM (active)
[3]
  AC50: 4.34 µM (active)
[4]
  CC50: 28.1 µM (active)
[5]
  EC50: 4.47 µM (active)
[6]
  IC50: 4.47 µM (active)
[7]
  AC50: 2.83 µM (active)
[8]
  IC50: 6.08 µM (active)
[9]
  EC50: 3.33 µM (active)

## Cc1c(C(=O)O)[nH]c2ccc([N+](=O)[O-])cc12
[10]
  EC50: 6.64 µM (active)
[11]
  EC50: 6.99 µM (active)
HEK293 [12]
  EC50: 6.29 µM (active)

## Cc1c(Cc2ccccc2)c(=O)oc2cc(O)cc(O)c12
Cells [13]
  IC50: 36.1 µM (active)

## O=C(N/N=C/c1c(O)ccc2ccccc12)c1cccnc1
[14]
  EC50: 3.14 µM (active)
HEK293 [15]
  AC50: 7.53 µM (active)
Cells [16]
  EC50: 8.55 µM (active)
Nonstructural protein 1
  IC50: 12.1 µM (active)
[17]
  EC50: 1.3 µM (active)
[18]
  EC50: > 160 µM (inactive)
INS1
  AC50: 0.794 µM (active)
[19]
  EC50: 9.03 µM (active)
[20]
  IC50: 3.67 µM (active)
Cells [21]
  EC50: > 350 µM (not active)

## CCOc1ccc(NC(=O)c2ccc(NC(S)=NC3CC3)cc2)cc1
HeLa
  CC50: > 99 µM (not active)

## Cc1ccc(CCC(=O)Nc2ncc(Cc3cc(Cl)ccc3Cl)s2)o1
[22]
  AC50: 0.251 µM (active)
[23]
  AC50: 34.7 µM (active)
[24]
  AC50: 7.96 µM (active)
[25]
  IC50: 9.88 µM (active)
[26]
  IC50: 7.27 µM (active)
